We go through 2 molecules from US20140162285A1, “Methods of Modulating Vesicular Trafficking” (The General Hospital Corporation, priority 2009, published 2014).

Entries after “also recorded” stand apart in the source; their conditions may differ. Peptide text beside a SMILES is read from it. * marks the point of attachment. Biotin = O=C1N[C@H]2[C@H](CS[C@H]2CCCCC(=O)*)N1

In one assay the target is T1, Sec7-domain of ARNO (Homo sapiens, UniProt Q99418).
T1 construct: iii) 61-252aa, Sec7 domain; GST (N, cleaved yes); made in house; host or cells: E. coli BL21(DE3)
T1 sequence (Q99418 61-252): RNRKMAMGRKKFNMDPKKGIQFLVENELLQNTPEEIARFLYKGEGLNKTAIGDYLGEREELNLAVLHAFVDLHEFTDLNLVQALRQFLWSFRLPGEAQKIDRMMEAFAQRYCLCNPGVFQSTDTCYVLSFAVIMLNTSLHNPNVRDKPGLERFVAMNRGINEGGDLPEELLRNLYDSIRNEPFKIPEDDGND
Briefly: a2N-derived peptide pull-down with GST-Sec7 domain. Particulars: GST-Sec7-6His. The assay is classed as binding. How it is done: FIGS. 5A-C are a set of three images of Western blots showing the identification of interaction motif of a2N that is involved in specific binding with the Sec7 domain of ARNO. 5A, The catalytic Sec7 domain of ARNO interacts with two a2N-derived peptides, a2N-01 and a2N-03, in pull-down experiments. The peptide pull-down assay was performed with six a2N-derived interaction peptides immobilized on streptavidin-beads and incubated with purified recombinant GST-only or GST-Sec7 domain. Interacting complexes were eluted and analyzed by Western blotting using monoclonal anti-GST antibodies as described below. The loading controls for GST-only (lane 1) or GST-Sec7 (lane 2) are shown. […] The peptide pull-down assay was performed with peptides a2N-01 and a2N-03 immobilized on streptavidin-beads and incubated with purified recombinant GST-PH domain (5B) or GST-PB domain (5C). Interacting complexes were eluted and analyzed by Western blotting using monoclonal anti-GST antibodies. […]
These a2N-derived peptides were immobilized by an N-terminal biotin-tag, which ensured the same efficiency and equivalent binding to streptavidin-agarose beads. […] After washing beads four times in ice-cold binding buffer, the interacting complexes were eluted by boiling in SDS-PAGE sample buffer for 10 min at 95° C., resolved by SDS-PAGE and analyzed by Western blotting using monoclonal anti-GST antibody.

Assay [1] addresses T2, ARNO's GEF activity with Arf6 (Homo sapiens, UniProt Q99418).
T2 sequence (Q99418 1-400): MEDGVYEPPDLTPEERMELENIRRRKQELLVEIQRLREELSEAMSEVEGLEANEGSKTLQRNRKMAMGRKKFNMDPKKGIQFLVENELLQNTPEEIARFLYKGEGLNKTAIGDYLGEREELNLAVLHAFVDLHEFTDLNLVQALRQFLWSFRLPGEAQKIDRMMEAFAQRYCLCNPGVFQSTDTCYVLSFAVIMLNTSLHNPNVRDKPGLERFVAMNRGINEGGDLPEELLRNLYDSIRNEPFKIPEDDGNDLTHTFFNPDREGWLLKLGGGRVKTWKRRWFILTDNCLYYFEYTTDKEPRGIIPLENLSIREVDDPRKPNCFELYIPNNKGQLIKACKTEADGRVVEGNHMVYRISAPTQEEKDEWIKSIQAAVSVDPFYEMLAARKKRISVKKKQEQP
The experiment in a line: radiolabel GDP/GTP-exchange (GEF) activity assay of ARNO with Arf6. It counts as biochemical. Particulars: recombinant protein. The procedure:
To test the effect of V-ATPase-derived peptides on enzymatic activity of small GTPases, the GDP/GTP exchange activity assay of ARNO with Arf6 was established in the presence of GTPγS and phospholipids vesicles containing various amounts of phosphatidylinositol PIP2 (FIG. 8).
Phospholipid vesicles were prepared by the extrusion method (Macia and Paris Biochemistry, 39: 5893-5901 (2000)). The lipids were dissolved in chloroform. A film of phospholipids was formed by evaporating chloroform and was resuspended in 50 mM Hepes, pH 7.5, and 1 mM dithiothreitol. The suspension was freeze-thawed 3 times and was passed through a 0.1 μm pore size polycarbonate filter.
GDP/GTP-exchange activity of ARNO was measured using time-course radiolabel based assay as previously described (Santy et al., Curr Biol. 9:1173-1176 (1999)). […] After washing filters 3 times with 2 ml of stop buffer, radioactivity was quantified using Perkin-Elmer “Tri-Carb 2900TR” liquid-scintillation counter.
In peptide-inhibition experiments, 500 nM of recombinant ARNO were incubated in the presence of different amounts (0-2000 nM) of FITC-a2N-01-TAT peptide or FITC-TAT peptide as a control. […] The enzymatic activities were followed for 30 min at 37° C. and radioactivity of aliquots were analyzed as described above.

Take `CSCC[C@H](NC(=O)CCCC[C@@H]1SC[C@@H]2NC(=O)N[C@@H]21)C(=O)NCC(=O)N[C@@H](CO)C(=O)N[C@@H](CC(C)C)C(=O)N[C@@H](Cc1ccccc1)C(=O)N[C@@H](CCCNC(=N)N)C(=O)N[C@@H](CO)C(=O)N[C@@H](CCC(=O)O)C(=O)N[C@@H](CO)C(=O)N[C@@H](CCSC)C(=O)N[C@@H](CS)C(=O)N[C@@H](CC(C)C)C(=O)N[C@@H](C)C(=O)N[C@@H](CCC(N)=O)C(=O)N[C@@H](CC(C)C)C(=O)N[C@@H](Cc1ccccc1)C(=O)N[C@@H](CC(C)C)C(=O)N[C@@H](CS)C(=O)O` [a2N-01, Bio-MGSLFRSE SMCLAQLFL-Cys] (Biotin-MGSLFRSESMCLAQLFLC-OH; N-terminus and C-terminus assumed): at Sec7-domain of ARNO, the “interaction with Sec7-domain of ARNO” value is “interact; also recorded: specifically interacts”.

B1: a2N: recombinant N-terminal cytosolic tail, amino acid residues 1-402 of mouse V-ATPase a2-subunit (protein)
chain: MGSLFRSESMCLAQLFLQSGTAYECLSALGEKGLVQFRDLNQNVSSFQRKFVGEVKRCEELERILVYLVQEITRADIPLPEGEASPPAPPLKHVLEMQEQLQKLEVELREVTKNKEKLRKNLLELVEYTHMLRVTKTFLKRNVEFEPTYEEFPALENDSLLDYSCMQRLGAKLGFVSGLIQQGRVEAFERMLWRACKGYTIVTYAELDECLEDPETGEVIKWYVFLISFWGEQIGHKVKKICDCYHCHIYPYPNTAEERREIQEGLNTRIQDLYTVLHKTEDYLRQVLCKAAESVCSRVVQVRKMKAIYHMLNMCSFDVTNKCLIAEVWCPEVDLPGLRRALEEGSRESGATIPSFMNTIPTKETPPTLIRTNKFTEGFQNIVDAYGVGSYREVNPALFTII
modifications: left off: small tags and cut ends
notes: recombinant N-terminal cytosolic tail, amino acid residues 1-402 of mouse V-ATPase a2-subunit
Regarding B1, in assay [1], the “modulation of GDP/GTP-exchange activity of ARNO” value was “successfully used to modulate”.
